Data as given in patent publication US4978665A, “3(2H)pyridazinone, and antagonistic agent against SRS-A containing it” (Nissan Chemical Industries Ltd., priority 1987, dated 1990).

Columns and labels:
[1] = tested on: LTD4; test: LTD4 antagonism in guinea-pig trachea (in vitro test); format: cell-based; conditions: Cavia porcellus, 0.5 h, LTD4 2×10^-8 g/ml, isolated guinea-pig trachea; for inhibition at 1 µg/mL: 10^-6 g/ml test compound; for inhibition at 0.1 µg/mL: 10^-7 g/ml test compound, read-out: LTD4 Antagonism (%) (in parenthesis)
Protocol: (§1) SRS-A is a mixture of leukotriene C4 (hereinafter referred to as LTC4), leukotriene D4 (hereinafter referred to as LTD4), leukotriene E4 (hereinafter referred to as LTE4) and the like. Accordingly, antagonistic activities against SRS-A can be evaluated by one of the following two test methods:
LTD4 antagonism in guinea-pig trachea
Antagonism for LTD4 was determined in isolated male guinea-pig (300-400 g) trachea prepared as spiral strip. Tracheal preparations were suspended under 1 g tension in 10 ml organ baths containing 5 μM of indomethacin and they were incubated for 1 hr prior to use. Contractile responses to LTD4 (2×10^-8 g/ml) were obtained after the maximal response to histamine (10^- 4 M). Test compounds dissolved in 100% dimethyl sulfoxide were added to the organ baths (final concentration of 10^-6 g/ml or 10^-7 g/ml) 30 min prior to LTD4 addition, and then contractile responses to LTD4 were compared with those of control which was obtained from a paired trachea in the absence of test compounds. LTD4 -induced contractions were expressed as a percentage of the maximal response to histamine. The antagonism was determined as follows:
Antagonism (%)=(1.0 - % contraction in test/% contraction in control)×100
In parenthesis in Table 2, LTD4 antagonisms by test compounds at a concentration of 10^-7 g/ml are shown.

[2] = tested on: SRS-A; test: Effect on anaphylactic bronchoconstriction mediated by endogeneously liberated SRS-A in passively sensitized guinea-pig (in vivo test); conditions: for Inhibition (%) of bronchoconstriction: 2 hrs before EA challenge; for inhibitory effects over the control (in words): oral administration, doses of Table 3, P<0.05
Description: as §1
Effect on anaphylactic bronchoconstriction mediated by endogeneously liberated SRS-A in passively sensitized guinea-pig
Male guinea-pigs (350-450 g) were passively sensitized with intravenous (i.v.) injection of 0.125 ml rabbit anti-EA (egg albumin) serum (Capple Laboratories) 1 to 2 days preceding the experiment. Antigen-induced anaphylactic bronchoconstrictions mediated by endogeneously liberated SRS-A were measured by modified method of Konzett and Rossler (Arch. Exp. Path. Pharmak., 195, 71, 1940). Sensitized guinea-pigs were anaesthetized with intraperitoneal injection of urethane (1.5 g/kg). The right jugular vein was cannulated for the administration of the all agents and trachea was cannulated to record total pulmonary resistance. Guinea-pigs were artificially ventilated by a small animal respirator (Shinano, Model SN-480-7) set at a stroke volume of 4.5 ml and a rate of 50 breaths per min. The change in pulmonary resistance was measured with a pressure transducer (Nihon Kohden, Model TP-602T) connected to a T-tube on the tracheal cannula. The increase in air overflow volume was expressed as a percentage of the maximum bronchoconstriction obtained by clamping off the trachea. Following surgical preparation, the animals were pretreated with indomethacin (2 mg/kg, 10 min), pyrilamine (2 mg/kg, 6 min) and propranolol (0.1 mg/kg, 5 min) prior to the EA challenge (0.2 mg/kg). All test compounds were administered orally 2 hrs before the EA challenge. Inhibition (%) of bronchoconstriction was determined as follows: Inhibition (%)=(1.0 - % maximum bronchoconstriction in test/% maximum bronchoconstriction in control)×100. The maximum bronchoconstriction was 62±6% (Mean±S.E.M; n=6) and the number of test animals was 5-6.

[3] = Acute toxicity test (lethal ratio, oral); format: in vivo, CD-1(ICR) strain male mice; conditions: 1200 mg/kg oral; 7 days after administration; experimental number 5
Protocol: The lethal ratio was determined in CD-1(ICR) strain male mice (5 weeks old) at 7 days after the oral administration of test compounds.

Row | SMILES | inhibition at 1 µg/mL [1] [%] | also measured
1 | CCCOc1cc(CN(C)c2cn[nH]c(=O)c2Cl)ccc1OC [Compound No. 5] | 54 | 
2 | CCCCOc1cc(CN(C)c2cn[nH]c(=O)c2Cl)ccc1OC [Compound No. 7] | 50 | 
3 | CCCOc1cc(CNc2c([N+](=O)[O-])n[nH]c(=O)c2Cl)ccc1OC [Compound No. 22, 4-chloro-5-(3-n-propoxy-4-methoxybenzylamino)-6-nitro-3(2H)pyridazinone] | 59 | 
4 | CCCOc1cc(CNc2c(N)n[nH]c(=O)c2Cl)ccc1OC [Compound No. 23, 4-chloro-5-(3-n-propoxy-4-methoxybenzylamino)-6-amino-3(2H)pyridazinone] | 51 | 
5 | CCCCOc1cc(CNc2c(N)n[nH]c(=O)c2Br)ccc1OC [Compound No. 30, 4-bromo-5-(3-n-butoxy-4-methoxybenzylamino)-6-amino-3(2H)pyridazinone] | 38 | 
6 | CCCCCCOc1cc(CNc2c([N+](=O)[O-])n[nH]c(=O)c2Br)ccc1OC [Compound No. 33] | 93 | 
7 | CCOc1cc(CNc2c(OCC)nn(CC)c(=O)c2Br)ccc1OC [Compound No. 48] | 99 | 
8 | CCCOc1cc(CNc2c(OCC)nn(CC)c(=O)c2Cl)ccc1OC [Compound No. 50, 2-ethyl-4-chloro-5-(3-n-propoxy-4-methoxybenzylamino)-6-ethoxy-3(2H)pyridazinone] | 95 | 
9 | CCOc1cc(CNc2c(OC(C)C)nn(CC)c(=O)c2Cl)ccc1OC [Compound No. 51] | 94 | 
10 | CCOc1cc(CNc2c(OC(C)C)nn(CC)c(=O)c2Br)ccc1OC [Compound No. 52] | 100 | 
11 | CCCOc1cc(CNc2c(OC(C)C)nn(CC)c(=O)c2Cl)ccc1OC [Compound No. 53] | 100 | 
12 | C=CCOc1nn(CC)c(=O)c(Br)c1NCc1ccc(OC)c(OCC)c1 [Compound No. 56] | 100 | inhibition at 0.1 µg/mL [1]: 51%
13 | CCCOc1cc(CNc2c(OC(C)C)n[nH]c(=O)c2Cl)ccc1OC [Compound No. 67] | 100 | inhibition at 0.1 µg/mL [1]: 82%
14 | CCCCOc1cc(CNc2c(OCC)n[nH]c(=O)c2Cl)ccc1OC [Compound No. 68, 4-chloro-5-(3-n-butoxy-4-methoxybenzylamino)-6-ethoxy-3(2H)pyridazinone] | 92 | Inhibition (%) of bronchoconstriction ([2]; 10 mg/kg orally): 63%; Inhibition (%) of bronchoconstriction ([2]; 30 mg/kg orally): 51%; inhibitory effects over the control (in words) [2]: significant inhibitory effects; Lethal ratio: Death number [3]: 0
15 | CCCCOc1cc(CNc2c(OC(C)C)n[nH]c(=O)c2Cl)ccc1OC [Compound No. 69] | 100 | inhibition at 0.1 µg/mL [1]: 83%; Inhibition (%) of bronchoconstriction ([2]; 30 mg/kg orally): 52%; inhibitory effects over the control (in words) [2]: significant inhibitory effects; Lethal ratio: Death number [3]: 0
16 | CCCOc1cc(CNc2c(Cl)n[nH]c(=O)c2Cl)ccc1OC [Compound No. 71, 4,6-dichloro-5-(3-n-propoxy-4-methoxybenzylamino)-3(2H)pyridazinone] | 66 | 
17 | CCC(C)Oc1n[nH]c(=O)c(Cl)c1NCc1ccc(OC)c(OC)c1 (stereo not drawn) [Compound No. 89] | 96 | inhibition at 0.1 µg/mL [1]: 55%
18 | CCOc1cc(CNc2c(OC(C)c3ccccc3)n[nH]c(=O)c2Cl)ccc1OC (stereo not drawn) [Compound No. 91] | 100 | inhibition at 0.1 µg/mL [1]: 76%
19 | CCCSc1n[nH]c(=O)c(Cl)c1NCc1ccc(OC)c(OC)c1 [Compound No. 92, 4-chloro-5-(3,4-dimethoxybenzylamino)-6-n-propylmercapto-3(2H)pyridazinone] | 63 | 
20 | CCCc1c(OCC(O)COc2ccc3c(=O)cc(C(=O)O)oc3c2CCC)ccc(C(C)=O)c1O (stereo not drawn) [FPL-55712, reference compound] | 94 | inhibition at 0.1 µg/mL [1]: 48%
21 | COc1ccc(CN(C)c2cn[nH]c(=O)c2Br)cc1OCCc1ccccc1 [compound 10] | 66 | 
22 | CCCOc1cc(CNc2c([N+](=O)[O-])n[nH]c(=O)c2Br)ccc1OC [compound 27] | 72 | 
23 | COc1ccc(CNc2c([N+](=O)[O-])n[nH]c(=O)c2Cl)cc1OCCc1ccccc1 [compound 36] | 70 | 
24 | CCOc1cc(CNc2c(OC)nn(CC)c(=O)c2Cl)ccc1OC [compound 45] | 50 | 
25 | CCOc1cc(CNc2c(OCC)nn(CC)c(=O)c2Cl)ccc1OC [compound 46] | 73 | 

Row | SMILES | inhibition at 1 µg/mL [1] [%] | also measured
26 | CCOc1cc(CNc2c(OC)nn(CC)c(=O)c2Br)ccc1OC [compound 47] | 79 | 
27 | C=CCOc1nn(CC)c(=O)c(Cl)c1NCc1ccc(OC)c(OCCC)c1 [compound 54] | 95 | 
28 | C=CCOc1nn(CC)c(=O)c(Cl)c1NCc1ccc(OC)c(OCC)c1 [compound 55] | 81 | 
29 | CCCOc1cc(CNc2c(OCCC)nn(CC)c(=O)c2Cl)ccc1OC [compound 57] | 100 | inhibition at 0.1 µg/mL [1]: 37%
30 | C#CCOc1nn(CC)c(=O)c(Br)c1NCc1ccc(OC)c(OCC)c1 [compound 58] | 100 | inhibition at 0.1 µg/mL [1]: 40%
31 | CC=CCOc1nn(CC)c(=O)c(Br)c1NCc1ccc(OC)c(OCC)c1 [compound 60] | 100 | inhibition at 0.1 µg/mL [1]: 38%
32 | C=C(C)COc1nn(CC)c(=O)c(Br)c1NCc1ccc(OC)c(OCC)c1 [compound 61] | 96 | 
33 | COc1ccc(CNc2c(OC(C)C)n[nH]c(=O)c2Cl)cc1OC [compound 63] | 92 | 
34 | CCOc1cc(CNc2c(OCC)n[nH]c(=O)c2Cl)ccc1OC [compound 64] | 90 | 
35 | CCOc1cc(CNc2c(OC(C)C)n[nH]c(=O)c2Cl)ccc1OC [compound 65] | 96 | 
36 | CCCOc1cc(CNc2c(OCC)n[nH]c(=O)c2Cl)ccc1OC [compound 66] | 100 | inhibition at 0.1 µg/mL [1]: 48%
37 | CCOc1cc(CNc2c(Cl)n[nH]c(=O)c2Cl)ccc1OC [compound 70] | 66 | 
38 | CCCCCCOc1cc(CNc2c(OC(C)C)n[nH]c(=O)c2Cl)ccc1OC [compound 72] | 75 | 
39 | CCOc1cc(CN(C)c2c(OC)nn(CC)c(=O)c2Br)ccc1OC [compound 73] | 100 | 
40 | CCOc1cc(CN(C)c2c(OCC)nn(CC)c(=O)c2Br)ccc1OC [compound 74] | 100 | 
41 | CCCOc1cc(CNc2c(OCc3ccccc3)nn(CC)c(=O)c2Cl)ccc1OC [compound 75] | 77 | 
42 | CCCOc1cc(CNc2c(OCC)nn(C(C)C)c(=O)c2Cl)ccc1OC [compound 77] | 50 | 
43 | CCCOc1cc(CNc2c(OC(C)C)nn(C(C)C)c(=O)c2Cl)ccc1OC [compound 78] | 56 | 
44 | C=CCOc1nn(C(C)C)c(=O)c(Cl)c1NCc1ccc(OC)c(OCCC)c1 [compound 79] | 79 | 
45 | CCOc1cc(CNc2c(OC)n[nH]c(=O)c2Cl)ccc1OC [compound 80] | 100 | 
46 | CCOc1n[nH]c(=O)c(Cl)c1NCc1ccc(OC)c(OC)c1 [compound 84] | 59 | 
47 | COc1ccc(CNc2c(OCc3ccccc3)n[nH]c(=O)c2Cl)cc1OC [compound 85] | 85 | 
48 | CCOc1cc(CNc2c(OCc3ccccc3)n[nH]c(=O)c2Cl)ccc1OC [compound 86] | 100 | inhibition at 0.1 µg/mL [1]: 48%
49 | COc1ccc(CNc2c(OC(C)c3ccccc3)n[nH]c(=O)c2Cl)cc1OC (stereo not drawn) [compound 90] | 96 | inhibition at 0.1 µg/mL [1]: 70%
50 | COc1ccc(CNc2c(SCC(C)C)n[nH]c(=O)c2Cl)cc1OC [compound 94] | 68 | 
